For the experiment, the target named is GLP-1R (Homo sapiens, UniProt P43220). Nature of the experiment: GLP-1R agonist cAMP stimulation assay (HTRF cAMP). The experiment is classed as cell-based. To be noted: HEK293 cell line expressing GLP-1 target; HTRF cAMP agonist mode, 30 min at RT. The method, boiled down:
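GLP-1R-expressing cells were stimulated with 10-point, 3-fold compound dilutions for 30 min at RT; HTRF cAMP detection reagents were then added for 60 min and the 665/615 ratio read. Ratios were converted to cAMP via a standard curve and % activity scaled between DMSO and top-concentration GLP-1(7-37) reference wells.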
(Time-resolved FRET reads energy transfer from a long-lived donor to a nearby acceptor.)
Chain of GLP-1R (P43220 24-463): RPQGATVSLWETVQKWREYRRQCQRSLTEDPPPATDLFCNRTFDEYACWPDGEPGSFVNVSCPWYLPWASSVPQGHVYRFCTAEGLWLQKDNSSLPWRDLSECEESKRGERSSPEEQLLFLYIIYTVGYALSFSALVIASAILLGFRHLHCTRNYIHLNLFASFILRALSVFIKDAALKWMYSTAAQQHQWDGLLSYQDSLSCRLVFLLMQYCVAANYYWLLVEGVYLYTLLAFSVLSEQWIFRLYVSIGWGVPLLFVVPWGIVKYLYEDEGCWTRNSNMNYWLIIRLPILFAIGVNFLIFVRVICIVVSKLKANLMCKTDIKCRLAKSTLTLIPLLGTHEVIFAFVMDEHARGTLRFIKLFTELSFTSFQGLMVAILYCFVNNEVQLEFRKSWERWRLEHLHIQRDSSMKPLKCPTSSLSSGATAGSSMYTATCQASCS
Regarding `O=C(Nc1ccc2c(c1)nc(CN1CC=C(c3cccc(OCc4ccc(Cl)cc4F)n3)CC1)n2C[C@@H]1CCO1)c1cc(C(F)(F)F)c2[nH]ncc2c1` [Compound 212], the EC50 (commonly the midpoint of the concentration-response curve) turned out to be 2.96 nM. This lies in the single-digit nanomolar range. In the case of `Cc1n[nH]c2c(C(F)(F)F)cc(C(=O)Nc3ccc4c(c3)nc(CN3CC=C(c5cccc(OCc6ccc(Cl)cn6)n5)CC3)n4C[C@@H]3CCO3)cc12` [Compound 213], the midpoint of the response, the EC50, lay at 0.78 nM. To `Cc1n[nH]c2c(Cl)cc(C(=O)Nc3ccc4c(c3)nc(CN3CC=C(c5cccc(OCc6ccc(Cl)cc6F)n5)CC3)n4C[C@@H]3CCO3)cc12` [Compound 214] belongs 1.21 nM. In turn, `O=C(Nc1ccc2c(c1)nc(CN1CC=C(c3cccc(OCc4ccc(Cl)cc4F)n3)CC1)n2C[C@@H]1CCO1)c1ccc2[nH]nc(C(F)(F)F)c2c1` [Compound 215] gave an EC50 of 2.11 nM.

As for `O=C(Nc1ccc2c(c1)nc(CN1CC=C(c3cccc(OCc4ccc(Cl)cc4F)n3)CC1)n2C[C@@H]1CCO1)c1ccc2[nH]nc(C3CC3)c2c1` [Compound 216], the EC50 was 0.82 nM. This EC50 lies about 2.6-fold lower than the previous one.

On to `Cc1cc(C(=O)Nc2ccc3c(c2)nc(CN2CC=C(c4cccc(OCc5ccc(Cl)cc5F)n4)CC2)n3C[C@@H]2CCO2)cc2c(C(F)F)n[nH]c12` [Compound 217], for which a half-maximal effect (EC50) was put at 0.79 nM. In turn, `Cc1cc(C(=O)Nc2ccc3c(c2)nc(CN2CC=C(c4cccc(OCc5ccc(Cl)cc5F)n4)CC2)n3C[C@@H]2CCO2)cc2c(C3CC3)n[nH]c12` [Compound 218] gave an EC50 of 1.63 nM.

On to `O=C(Nc1ccc2c(c1)nc(CN1CC=C(c3cccc(OCc4ccc(Cl)cc4F)n3)CC1)n2C[C@@H]1CCO1)c1ccc2[nH]nc(C(F)F)c2c1` [Compound 219], for which the concentration giving a half-maximal response (EC50) came out at 1.21 nM. To `Cc1n[nH]c2c(C(F)F)cc(C(=O)Nc3ccc4c(c3)nc(CN3CC=C(c5cccc(OCc6ccc(Cl)cc6F)n5)CC3)n4C[C@@H]3CCO3)cc12` [Compound 220] belongs 0.44 nM. For `Cc1n[nH]c2cc(F)c(C(=O)Nc3ccc4c(c3)nc(CN3CC=C(c5cccc(OCc6ccc(Cl)cc6F)n5)CC3)n4C[C@@H]3CCO3)cc12` [Compound 221], the half-maximal effective concentration (EC50) is 2.13 nM. `Cc1cc(C(=O)Nc2ccc3c(c2)nc(CN2CC=C(c4cccc(OCc5ccc(Cl)cc5F)n4)CC2)n3C[C@@H]2CCO2)c(F)c2c(C)n[nH]c12` [Compound 222] displayed an EC50 of 3.56 nM. Take `CC(C)c1n[nH]c2ccc(C(=O)Nc3ccc4c(c3)nc(CN3CC=C(c5cccc(OCc6ccc(Cl)cc6F)n5)CC3)n4C[C@@H]3CCO3)cc12` [Compound 223]: the EC50 came to 0.95 nM. Against the preceding compound, the EC50 is about 3.7-fold lower. As to `Cc1n[nH]c2ccc(C(=O)Nc3ccc4c(c3)nc(CN3CC=C(c5cccc(OCc6ccc(Cl)cc6F)n5)CC3)n4C[C@@H]3CCO3)c(F)c12` [Compound 224], the EC50 was found to be 3.29 nM. Turning to `Cc1n[nH]c2c(F)cc(C(=O)Nc3ccc4c(c3)nc(CN3CC=C(c5cccc(OCc6ccc(C#N)cc6F)n5)CC3)n4C[C@@H]3CCO3)cc12` [Compound 225], it took 0.18 nM to reach a half-maximal effect (EC50). For the compound `N#Cc1ccc(COc2cccc(C3=CCN(Cc4nc5cc(NC(=O)c6cc(F)c7c(c6)C6(CC6)C(=O)N7)ccc5n4C[C@@H]4CCO4)CC3)n2)c(F)c1` [Compound 226], the 50% effective concentration (EC50) was 0.12 nM. In turn, `N#Cc1ccc(COc2cccc(C3=CCN(Cc4nc5cc(NC(=O)c6cc(F)c7c(c6)C6(CC6)C(=O)N7)ccc5n4C[C@@H]4CCO4)CC3)n2)c(F)c1` [Compound 227] registered an EC50 of 0.22 nM. Against the preceding compound, the EC50 is about 1.8-fold higher.

Compound `Cc1cc(C(=O)Nc2ccc3c(c2)nc(CN2CC=C(c4cccc(OCc5ccc(C#N)cc5F)n4)CC2)n3C[C@@H]2CCO2)cc2c(C(F)F)n[nH]c12` [Compound 228] gave an EC50 of 1.26 nM. This EC50 is about 5.7-fold higher than that of the compound before.

Compound `N#Cc1ccc(COc2cccc(C3=CCN(Cc4nc5cc(NC(=O)c6ccc7c(c6)C6(CC6)C(=O)N7)ccc5n4C[C@@H]4CCO4)CC3)n2)c(F)c1` [Compound 230] came in with a concentration for a half-maximal effect (EC50) of 0.09 nM.

Compound `CCc1n[nH]c2ccc(C(=O)Nc3ccc4c(c3)nc(CN3CC=C(c5cccc(OCc6ccc(C#N)cc6F)n5)CC3)n4C[C@@H]3CCO3)cc12` [Compound 231] returned an EC50 of 0.87 nM.

`N#Cc1ccc(COc2cccc(C3=CCN(Cc4nc5cc(NC(=O)c6ccc7[nH]nc(C(F)(F)F)c7c6)ccc5n4C[C@@H]4CCO4)CC3)n2)c(F)c1` [Compound 232] showed a concentration for a half-maximal effect (EC50) of 1.26 nM.

As for `Cc1cc(C(=O)Nc2ccc3c(c2)nc(CN2CC=C(c4cccc(OCc5ccc(C#N)cc5F)n4)CC2)n3C[C@@H]2CCO2)cc2c(C3CC3)n[nH]c12` [Compound 233], the EC50 amounted to 0.92 nM. The EC50 values of the last two compounds are within 1.5-fold of each other.

As for `Cc1n[nH]c2ncc(C(=O)Nc3ccc4c(c3)nc(CN3CC=C(c5cccc(OCc6ccc(C#N)cc6F)n5)CC3)n4C[C@@H]3CCO3)cc12` [Compound 234], the response was half-maximal at 3.87 nM (EC50). This EC50 is about 4.2-fold higher than that of the compound before.

On to `Cc1n[nH]c2ccc(C(=O)Nc3ccc4c(c3)nc(CN3CC=C(c5cccc(OCc6ccc(C#N)cc6F)n5)CC3)n4C[C@@H]3CCO3)cc12` [Compound 235], for which a half-maximal response (EC50) required 0.42 nM. `Cc1cc(C(=O)Nc2ccc3c(c2)nc(CN2CC=C(c4cccc(OCc5ccc(C#N)cc5F)n4)CC2)n3C[C@@H]2CCO2)cc2cn[nH]c12` [Compound 236] came in with a concentration for a half-maximal effect (EC50) of 1.04 nM. `Cc1n[nH]c2cnc(C(=O)Nc3ccc4c(c3)nc(CN3CC=C(c5cccc(OCc6ccc(Cl)cc6F)n5)CC3)n4C[C@@H]3CCO3)cc12` [Compound 237] showed an EC50 of 8.71 nM.

The compound `Cc1n[nH]c2ncc(C(=O)Nc3ccc4c(c3)nc(CN3CC=C(c5cccc(OCc6ccc(Cl)cc6F)n5)CC3)n4C[C@@H]3CCO3)nc12` [Compound 238] gave an EC50 of 11.9 nM. To `Cc1n[nH]c2ccc(C(=O)Nc3ccc4c(c3)nc(CN3CC=C(c5cccc(OCc6ccc(Cl)cc6F)n5)CC3)n4C[C@@H]3CCO3)nc12` [Compound 239] belongs 3.19 nM; to `Cc1n[nH]c2cnc(C(=O)Nc3ccc4c(c3)nc(CN3CC=C(c5cccc(OCc6ccc(Cl)cc6F)n5)CC3)n4C[C@@H]3CCO3)nc12` [Compound 240], 20.7 nM; to `O=C(Nc1ccc2c(c1)nc(CN1CC=C(c3cccc(OCc4ccc(Cl)cc4F)n3)CC1)n2C[C@@H]1CCO1)c1ccc2[nH]nnc2c1` [Compound 241], 0.31 nM.

In turn, `Cc1cc(C(=O)Nc2ccc3c(c2)nc(CN2CC=C(c4cccc(OCc5ccc(Cl)cc5F)n4)CC2)n3C[C@@H]2CCO2)cc2nn[nH]c12` [Compound 242] showed a concentration for a half-maximal effect (EC50) of 0.17 nM. Compared with the last compound, the EC50 is about 1.8-fold lower. With `C=C(C)c1n[nH]c2ccc(C(=O)Nc3ccc4c(c3)nc(C3CC35CCN(c3cccc(OCc6ccc(Cl)cc6F)n3)CC5)n4CC3CCO3)cc12` (stereo not drawn) [Compound 243] the figure was 0.48 nM; with `Cc1n[nH]c2ccc(C(=O)Nc3ccc4c(c3)nc(C3CC35CCN(c3cccc(OCc6ccc(Cl)cc6F)n3)CC5)n4CC3CCO3)cc12` (stereo not drawn) [Compound 246], 0.91 nM; with `Cc1cc(C(=O)Nc2ccc3c(c2)nc(C2CC24CCN(c2cccc(OCc5ccc(Cl)cc5F)n2)CC4)n3C[C@@H]2CCO2)cc2c1NC(=O)C21CC1` (stereo partly drawn) [Compound 247], 0.83 nM. To `Cc1n[nH]c2c(Cl)cc(C(=O)Nc3ccc4c(c3)nc(C3CC35CCN(c3cccc(OCc6ccc(Cl)cc6F)n3)CC5)n4CC3CCO3)cc12` (stereo not drawn) [Compound 248] belongs 1.28 nM.

In turn, `Cc1cc(C(=O)Nc2ccc3c(c2)nc(C2CC24CCN(c2cccc(OCc5ccc(Cl)cc5F)n2)CC4)n3C[C@@H]2CCO2)cc2[nH]c(=O)[nH]c12` (stereo partly drawn) [Compound 249] had a concentration giving a half-maximal response (EC50) of 0.44 nM. Against the preceding compound, the EC50 is about 2.9-fold lower. As for `CCc1n[nH]c2ccc(C(=O)Nc3ccc4c(c3)nc(C3CC35CCN(c3cccc(OCc6ccc(Cl)cc6F)n3)CC5)n4CC3CCO3)cc12` (stereo not drawn) [Compound 250], the EC50 was determined as 1.49 nM.
